# Target: ATP-dependent translocase ABCB1 (Homo sapiens, UniProt P08183)
# Assay: Inhibition of P-glycoprotein-mediated daunorubicin efflux from human CCRF-CEM/VCR1000 cells after 240 secs by FACS flow cytometric analysis
# Chain of ATP-dependent translocase ABCB1 (P08183 whole entry): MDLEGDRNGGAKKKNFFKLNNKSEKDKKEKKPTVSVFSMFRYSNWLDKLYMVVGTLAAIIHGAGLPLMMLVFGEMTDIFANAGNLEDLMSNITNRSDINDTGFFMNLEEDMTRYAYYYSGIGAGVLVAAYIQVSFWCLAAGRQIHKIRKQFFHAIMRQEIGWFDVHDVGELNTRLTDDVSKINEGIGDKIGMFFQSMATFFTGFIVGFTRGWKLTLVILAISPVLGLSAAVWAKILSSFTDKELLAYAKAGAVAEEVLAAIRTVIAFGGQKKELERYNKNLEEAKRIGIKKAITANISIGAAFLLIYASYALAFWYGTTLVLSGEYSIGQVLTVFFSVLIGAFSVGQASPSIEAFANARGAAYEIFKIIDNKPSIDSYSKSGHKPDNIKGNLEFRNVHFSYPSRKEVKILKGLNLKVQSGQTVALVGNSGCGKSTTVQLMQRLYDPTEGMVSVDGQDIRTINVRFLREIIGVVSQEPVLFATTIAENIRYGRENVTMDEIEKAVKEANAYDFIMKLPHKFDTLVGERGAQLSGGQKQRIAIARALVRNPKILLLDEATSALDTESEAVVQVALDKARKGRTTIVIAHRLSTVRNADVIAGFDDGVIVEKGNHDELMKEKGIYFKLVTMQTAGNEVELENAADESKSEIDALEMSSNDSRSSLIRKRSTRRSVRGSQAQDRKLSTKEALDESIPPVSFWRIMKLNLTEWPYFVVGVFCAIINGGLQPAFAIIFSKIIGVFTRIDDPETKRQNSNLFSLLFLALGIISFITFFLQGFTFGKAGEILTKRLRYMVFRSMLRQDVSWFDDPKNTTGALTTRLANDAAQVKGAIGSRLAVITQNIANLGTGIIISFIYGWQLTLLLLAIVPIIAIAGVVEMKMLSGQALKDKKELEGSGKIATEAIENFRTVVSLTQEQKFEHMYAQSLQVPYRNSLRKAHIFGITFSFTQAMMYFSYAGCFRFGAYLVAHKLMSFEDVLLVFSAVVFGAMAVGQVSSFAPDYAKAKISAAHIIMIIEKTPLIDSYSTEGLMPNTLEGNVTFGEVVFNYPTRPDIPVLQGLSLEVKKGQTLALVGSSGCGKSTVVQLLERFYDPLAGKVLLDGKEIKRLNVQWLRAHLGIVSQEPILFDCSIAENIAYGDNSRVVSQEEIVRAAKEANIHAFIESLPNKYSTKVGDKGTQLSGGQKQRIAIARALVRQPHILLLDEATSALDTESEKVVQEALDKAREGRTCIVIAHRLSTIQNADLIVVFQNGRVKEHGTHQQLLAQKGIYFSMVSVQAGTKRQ
SMILES,IC50 (read-out: IC50),IC50 (read-out: pIC50 (converted))
O=C(c1ccccc1)c1ccccc1OCC(O)CN1CCC(O)(c2ccccc2)CC1 (configuration not stated),310 nM,
O=C(c1ccccc1)c1ccc(OCC(O)CN2CCOCC2)cc1 (configuration not stated),5320 nM,
O=C(c1ccccc1)c1ccc(OCC(O)CN2CCCCC2)cc1 (configuration not stated),2180 nM,
O=C(c1ccccc1)c1ccccc1OCC(O)CN1CCOCC1 (configuration not stated),13400 nM,
Cc1cccc(N2CCN(CC(O)COc3cccc(C(=O)c4ccccc4)c3)CC2)c1C (configuration not stated),170 nM,
Cc1cccc(N2CCN(CC(O)COc3ccc(C(=O)c4ccccc4)cc3)CC2)c1C (configuration not stated),650 nM,
O=C(c1ccccc1)c1ccc(OCC(O)CN2CCN(c3ccc(F)cc3)CC2)cc1 (configuration not stated),970 nM,
O=C(c1ccccc1)c1ccccc1OCC(O)CN1CCCCC1 (configuration not stated),1200 nM,
O=C(c1ccccc1)c1cccc(OCC(O)CN2CCCCC2)c1 (configuration not stated),3550 nM,
Cc1ccccc1N1CCN(CC(O)COc2cccc(C(=O)c3ccccc3)c2)CC1 (configuration not stated),200 nM,
Cc1ccc(NC(=O)N2CCN(CC(O)COc3ccccc3C(=O)c3ccccc3)CC2)cc1 (configuration not stated),480 nM,
Cc1ccc(NC(=S)N2CCN(CC(O)COc3ccccc3C(=O)c3ccccc3)CC2)cc1 (configuration not stated),380 nM,
CC(=O)c1cc(C)ccc1OCC(O)CN1CCN(CC(O)COc2ccccc2C(=O)c2ccccc2)CC1 (configuration not stated),9480 nM,
CCOC/C=C/c1ccc(-c2nc(-c3ccc(NC(C)C)cc3)c(-c3ccc(NC(C)C)cc3)[nH]2)cc1,,31.6 nM
O=C(CCc1ccccc1)c1ccccc1OCC(O)CN1CCCCC1 (configuration not stated),,603 nM
O=C(CCc1ccccc1)c1ccccc1OCC(O)CN1CCC(O)(c2ccccc2)CC1 (configuration not stated),,57.5 nM
COc1cc2c(cc1OC)CN(CCc1ccc(NC(=O)c3cc(OC)c(OC)cc3NC(=O)c3cnc4ccccc4c3)cc1)CC2,,33.1 nM

# Further lines, with some results ahead:
IC50 (read-out: IC50),SMILES,IC50 (read-out: pIC50 (converted))
150 nM,O=C(c1ccccc1)c1ccccc1OCC(O)CN1CCN(c2ccc(F)cc2)CC1 (configuration not stated),
580 nM,O=C(c1ccccc1)c1cccc(OCC(O)CN2CCN(c3ccc(F)cc3)CC2)c1 (configuration not stated),
500 nM,Cc1ccccc1N1CCN(CC(O)COc2ccc(C(=O)c3ccccc3)cc2)CC1 (configuration not stated),
1210 nM,CCCNCC(O)COc1ccccc1C(=O)c1ccc(C)cc1 (configuration not stated),
50 nM,O=C(c1ccccc1)c1ccccc1OCC(O)CN1CCN(CC(O)COc2ccccc2C(=O)c2ccccc2)CC1 (configuration not stated),
